# Source: paper PMC10485003, “Antibiotic hyper-resistance in a class I aminoacyl-tRNA synthetase with altered active site signature motif” (Nature Communications, 2023)
# Where “and” joins values, the source holds several entries; their conditions need not be identical. Equal values may be shown once.
# Columns and labels:
# mut-GVHH TtIleRS2 = molecular target: T1, mut-GVHH TtIleRS2 (Thermus thermophilus, UniProt P56690, G56H/H54G); assay: biochemical
# T1 construct: hexa-histidine tag (pET28b(+)) (N); made in house; host or cells: E. coli Rosetta2 (DE3)
# T1 sequence (P56690 1-1043 H54G/G56H): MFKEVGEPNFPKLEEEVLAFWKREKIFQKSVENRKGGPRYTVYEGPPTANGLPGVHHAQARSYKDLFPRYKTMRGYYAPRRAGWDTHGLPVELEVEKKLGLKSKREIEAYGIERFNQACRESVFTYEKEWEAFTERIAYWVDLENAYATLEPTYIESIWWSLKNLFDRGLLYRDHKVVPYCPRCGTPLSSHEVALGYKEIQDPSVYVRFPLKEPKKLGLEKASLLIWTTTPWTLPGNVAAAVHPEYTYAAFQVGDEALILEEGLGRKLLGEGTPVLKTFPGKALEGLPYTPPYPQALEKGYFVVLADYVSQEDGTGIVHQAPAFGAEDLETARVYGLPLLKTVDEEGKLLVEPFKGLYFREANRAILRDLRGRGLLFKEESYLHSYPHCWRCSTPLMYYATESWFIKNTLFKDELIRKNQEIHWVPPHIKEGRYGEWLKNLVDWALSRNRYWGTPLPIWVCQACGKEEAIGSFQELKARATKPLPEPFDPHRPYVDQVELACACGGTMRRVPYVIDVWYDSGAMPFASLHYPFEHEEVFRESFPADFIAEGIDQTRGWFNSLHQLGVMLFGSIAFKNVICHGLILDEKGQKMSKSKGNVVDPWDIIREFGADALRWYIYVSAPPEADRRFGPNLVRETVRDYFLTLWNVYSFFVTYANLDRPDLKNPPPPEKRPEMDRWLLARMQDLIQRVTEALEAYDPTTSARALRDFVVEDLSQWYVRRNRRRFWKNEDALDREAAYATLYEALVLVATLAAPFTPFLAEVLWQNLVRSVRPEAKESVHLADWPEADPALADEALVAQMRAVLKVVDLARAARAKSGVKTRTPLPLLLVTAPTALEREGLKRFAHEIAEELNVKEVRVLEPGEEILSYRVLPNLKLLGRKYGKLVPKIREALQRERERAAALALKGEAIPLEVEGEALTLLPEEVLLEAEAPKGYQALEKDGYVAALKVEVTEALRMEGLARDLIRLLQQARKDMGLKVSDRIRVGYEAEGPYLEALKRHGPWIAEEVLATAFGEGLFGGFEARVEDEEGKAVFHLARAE
# Experimental: (§1) L-Ile and ATP concentrations ranged from 1/10 KM to 10 KM values. When measuring the KI towards one of the substrates, the other was held in saturation (concentrations at least 10 KM). The aliquots of the reaction mixture (1–2.5 μl) were quenched in 2 volumes of 500 mM NaOAc pH = 4.5, 0.1% SDS, and formed ^32P-ATP was separated from the remaining ^32P-PPi by thin-layer chromatography on Polygram CEL 300 PEI UV254 TLC plates (Macherey-Nagel, cat: 801063) using 750 mM KH2PO4 pH=3.5, 4 M urea buffer. Visualization and quantification of the signals was performed using a Typhoon Phosphoimager 5 (General Electric) and accompanying ImageQuant™ TL software (SV: 10.2). The kinetic constants were determined using a global fit option of the competitive inhibition model of GraphPad Prism 6 software (SV: 6.01). All experiments were performed in triplicates. The kcat was determined by dividing the maximal velocity, VM, with the used enzyme concentration. […]
# (§2) variable substrate (ATP or Ile) was varied in the range of 0.1 KM to 10 KM. The other substrate (Ile or ATP) was kept in excess at 5 to 10 KM. Data were globally fitted to the competitive inhibition model using GraphPad prism 6.01 for Windows software. The values represent the average value ± SD of three independent experiments. Source data are provided as a Source Data file.
# (§3) (1 picture or pasted object on this page, not shown here)
# mut-HVGH DrIleRS2 = molecular target: T2, mut-HVGH DrIleRS2 (Deinococcus radiodurans, UniProt Q9RUP8, A59H/H61G/L60V); assay: biochemical
# T2 construct: hexa-histidine tag (pET28b(+)) (N); made in house; host or cells: E. coli BL21(DE3)
# T2 sequence (Q9RUP8 1-1078 A59H/L60V/H61G): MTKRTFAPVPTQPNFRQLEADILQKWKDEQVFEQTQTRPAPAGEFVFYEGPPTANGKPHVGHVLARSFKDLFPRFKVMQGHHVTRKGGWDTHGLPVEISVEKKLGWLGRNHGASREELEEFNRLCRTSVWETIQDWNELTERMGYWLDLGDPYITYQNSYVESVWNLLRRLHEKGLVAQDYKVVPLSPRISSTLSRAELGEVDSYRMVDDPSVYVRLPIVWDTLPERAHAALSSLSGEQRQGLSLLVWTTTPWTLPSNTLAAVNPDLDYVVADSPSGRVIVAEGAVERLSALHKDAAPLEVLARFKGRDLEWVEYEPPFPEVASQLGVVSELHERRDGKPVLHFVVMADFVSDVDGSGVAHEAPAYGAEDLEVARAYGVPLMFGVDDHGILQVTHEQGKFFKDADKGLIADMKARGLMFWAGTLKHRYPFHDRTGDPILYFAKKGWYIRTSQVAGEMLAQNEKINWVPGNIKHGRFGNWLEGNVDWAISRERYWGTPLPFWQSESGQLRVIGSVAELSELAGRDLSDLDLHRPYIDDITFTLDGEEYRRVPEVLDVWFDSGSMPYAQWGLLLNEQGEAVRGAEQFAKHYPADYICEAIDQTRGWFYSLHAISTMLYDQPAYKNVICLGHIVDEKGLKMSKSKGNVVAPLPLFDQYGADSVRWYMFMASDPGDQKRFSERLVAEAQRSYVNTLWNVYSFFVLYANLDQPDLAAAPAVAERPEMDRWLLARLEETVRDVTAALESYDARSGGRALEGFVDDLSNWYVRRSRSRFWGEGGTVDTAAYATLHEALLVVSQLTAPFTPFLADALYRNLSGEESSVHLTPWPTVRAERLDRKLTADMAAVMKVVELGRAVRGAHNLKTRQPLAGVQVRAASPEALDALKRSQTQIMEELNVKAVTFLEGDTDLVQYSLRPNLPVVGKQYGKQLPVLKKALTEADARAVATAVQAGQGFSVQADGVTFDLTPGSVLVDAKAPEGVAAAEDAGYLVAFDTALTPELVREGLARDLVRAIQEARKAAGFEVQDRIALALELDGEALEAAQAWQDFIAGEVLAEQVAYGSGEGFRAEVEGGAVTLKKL
# Experimental: as §1, §2, §3
# SgIleRS2 = settings: non-canonical motif; cited from earlier work
# E. coli IleRS1 = tested on: E. coli IleRS1; design: method as in earlier work; settings: aminoacylation, with tRNA; cited from earlier work
# [1] = KI (MUP)ATP, amino acid activation assay, ATP as variable substrate, average ± SD of three independent experiments
# [2] = KI (MUP)Ile, amino acid activation step, ATP/PPi exchange assay, Ile varied, ATP saturating, average ± SD of three independent experiments
# [3] = KI, single replicates, mupirocin inhibition towards Ile, GraphPad Prism output, Repl1-Repl3
compound,measurement,setting,value
C/C(=C\C(=O)OCCCCCCCCC(=O)O)C[C@@H]1OC[C@H](C[C@@H]2O[C@H]2[C@@H](C)[C@H](C)O)[C@@H](O)[C@H]1O [mupirocin],Ki,mut-GVHH TtIleRS2; [1],34 ± 2 µM
same,Ki,mut-GVHH TtIleRS2; [2],35 ± 2 µM
same,Ki,mut-GVHH TtIleRS2; [3],34 µM and 35 µM and 36 µM
same,Ki,mut-HVGH DrIleRS2; [1],9.3 ± 0.4 µM
same,Ki,mut-HVGH DrIleRS2; [2],8.1 ± 0.3 µM
same,Ki,mut-HVGH DrIleRS2; [3],7.8 µM and 8.4 µM (2×)
same,Ki for mupirocin,SgIleRS2,mM range
same,Ki,E. coli IleRS1,0.0025 µM
